Laboratory results from PubChem BioAssay (NCI).
Values joined by “and” are separate entries in the source; they are usually repeats but may differ in a detail not shown here. Identical values can stand only once.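 Where inhibition never reached the appropriate level, the endpoint shown equals the highest concentration tested. Otherwise, values were interpolated linearly from a five-concentration, 48-hour dose response in 96-well plates. Abbreviation: GI50, concentration required for 50% inhibition of growth. At the TGI there is no net growth.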 Where a SMILES comes first, the peptide text is derived from it. The star is where a group is joined. Boc = CC(C)(C)OC(=O)*; Bn = c1ccc(C*)cc1

Experiments:
Test in all cases: NCI anticancer screen, dose series, 48 h
[1] = tested on: HS 578T breast
[2] = tested on: SF-295 CNS
[3] = tested on: SR leukemia
[4] = tested on: EKVX NSCLC
[5] = tested on: HL-60(TB) leukemia
[6] = tested on: SW-620 colon
[7] = tested on: COLO 205 colon
[8] = tested on: SNB-75 CNS
[9] = tested on: HT29 colon
[10] = tested on: DU-145 prostate
[11] = tested on: SF-539 CNS
[12] = tested on: CAKI-1 renal
[13] = tested on: MALME-3M melanoma
[14] = tested on: UACC-257 melanoma

| Compound | TGI [1] | TGI [2] | TGI [3] | TGI [4] | TGI [5] | TGI [6] | TGI [7] | TGI [8] | TGI [9] | TGI [10] | TGI [11] | TGI [12] | TGI [13] | TGI [14] | GI50 [2] | GI50 [4] | GI50 [5] | GI50 [7] | GI50 [8] |
| --- | --- | --- | --- | --- | --- | --- | --- | --- | --- | --- | --- | --- | --- | --- | --- | --- | --- | --- | --- |
| CN1CC2=C(NC(=S)NC2c2ccccc2Cl)/C(=C/c2ccccc2Cl)C1 (stereo not given) | > 100 µM | > 100 µM | 70.5 µM | > 100 µM | 62.6 µM | > 100 µM | 60.4 µM | 23.8 µM | > 100 µM | > 100 µM | > 100 µM | > 100 µM | 74.4 µM | > 100 µM | – | – | – | – | – |
| CC1(C)CCCCCCCCCC2CC2CCC(C)(C)C1=O (stereo not given) | 82.3 µM | 33.9 µM | 53.5 µM | 39.3 µM | 49.1 µM | > 100 µM | 32.7 µM | 71.1 µM | 39.6 µM | 40.9 µM | 44.3 µM | > 100 µM | 49 µM | 46.2 µM | – | – | – | – | – |
| CNC(=O)C(CC(C)C)NC(=O)C(C)NC(=O)C(Cc1ccc(OCc2ccccc2)cc1)NC(=O)C(COCc1ccccc1)NC(=O)OC(C)(C)C (stereo not given) (Boc-S(Bn)Y(Bn)AL-NHMe; configuration not given here) | 58.1 µM and 31.4 µM | > 61 µM and 41.2 µM | > 46.1 µM and 86.9 µM | > 100 µM and 77.9 µM | 30.2 µM and > 100 µM | 31 µM and 28.7 µM | 38.3 µM and 9.52 µM | > 31.6 µM and 22.9 µM | > 38.9 µM and 30.9 µM | > 100 µM | > 57.8 µM | > 100 µM | > 100 µM and 18.1 µM | > 100 µM | > 43.9 µM and 21 µM | > 100 µM and 26.4 µM | 9.51 µM and 3.9 µM | 17.3 µM and 2.11 µM | 18.9 µM and 9 µM |
| COc1cc(CNc2c3ccccc3nc3ccccc23)cc(OC)c1OC | 29.8 µM | 14.4 µM | 7.58 µM | 21.4 µM | > 21.3 µM | 10.1 µM | 7.14 µM | 13.9 µM | 14.3 µM | > 52.1 µM | 15.7 µM | 14.1 µM | 12.5 µM | 11.2 µM | – | – | – | – | – |
| CCCCC1(O)CC2CC1C(C)C2(C)C (stereo not given) | > 100 µM | > 100 µM | > 100 µM | > 100 µM | 64.6 µM | > 100 µM | > 100 µM | > 100 µM | > 100 µM | > 100 µM | > 100 µM | > 100 µM | > 100 µM | > 100 µM | – | – | – | – | – |
| CC(=O)Nc1cc2nc3n(c2cc1C)CCC3OC(C)=O (stereo not given) | > 100 µM | > 100 µM | > 100 µM | > 100 µM | > 100 µM | > 100 µM | > 100 µM | > 100 µM | > 100 µM | > 100 µM | > 100 µM | > 100 µM | > 100 µM | > 100 µM | – | – | – | – | – |
| O=C1/C(=C/c2ccc(O)c(O)c2)CC/C1=C\c1ccc(O)c(O)c1 | > 100 µM | > 100 µM | > 29.5 µM | > 75.3 µM | > 46.2 µM | > 100 µM | > 86.8 µM | > 80.1 µM | > 100 µM | > 100 µM | 9.64 µM | > 57.7 µM | > 100 µM | > 100 µM | – | – | – | – | – |
| C#CCOCn1cc(C)c(=O)[nH]c1=O | > 100 µM | > 100 µM | > 100 µM | > 100 µM | > 100 µM | > 100 µM | > 100 µM | > 100 µM | > 100 µM | > 100 µM | > 100 µM | > 100 µM | > 100 µM | > 100 µM | – | – | – | – | – |
| CCCCCCCCCCOCCOCCOCCOCCCCC(O)CCCCCCCC1=C[C@H](C)OC1=O (stereo not given in full) | 31.1 µM | 21.5 µM | 19.6 µM | 26.4 µM | 15.5 µM | 29.5 µM | 34.5 µM | 24.7 µM | 24.4 µM | 41.3 µM | 24.5 µM | 32.2 µM | 46.3 µM | 19.8 µM | – | – | – | – | – |
| Cc1cn(C2CCN(CC3COC(C)(C)O3)O2)c(=O)[nH]c1=O (stereo not given) | > 100 µM | > 100 µM | > 100 µM | > 100 µM | > 100 µM | > 100 µM | > 100 µM | > 100 µM | > 100 µM | > 100 µM | > 100 µM | > 100 µM | > 100 µM | > 100 µM | – | – | – | – | – |
| CCCC(=O)OC[n+]1ccc(-c2c(COC(=O)NC(C)C)c(COC(=O)NC(C)C)c3n2CCC3)cc1 | > 100 µM | > 100 µM | > 100 µM | > 100 µM | > 100 µM | > 100 µM | > 100 µM | > 100 µM | > 100 µM | > 100 µM | > 100 µM | > 100 µM | > 100 µM | > 100 µM | – | – | – | – | – |
| COc1ccc(-c2nc3c(C(=O)NCCN(C)C)cccc3c3ccccc23)cc1 | 28.9 µM | 4.83 µM | 6.96 µM | 19.6 µM | 7 µM | 14.5 µM | 4.51 µM | 17.6 µM | 7.78 µM | 17.4 µM | 4.87 µM | 7.05 µM | 8.7 µM | 3.56 µM | – | – | – | – | – |
| CC1=N[C@@](C)(C2CC3C=CC2C3=O)COC1=O (stereo not given in full) | > 100 µM | > 100 µM | > 100 µM | > 100 µM | > 100 µM | > 100 µM | > 100 µM | > 100 µM | > 100 µM | > 100 µM | > 100 µM | > 100 µM | > 100 µM | > 100 µM | – | – | – | – | – |
| CC(=O)NC1COC(COC(=O)CCCCCCCCCCNC(=O)c2ccc([N+](=O)[O-])c3c(=O)c4ccccc4[nH]c23)C(O)C1OC(C)C(=O)NC(C(=O)NC(CCC(N)=O)C(=O)OCc1ccccc1)C(C)C (stereo not given) | 17.6 µM | 42.7 µM | 46.5 µM | 27.8 µM | 6.72 µM | > 72.8 µM | 41.2 µM | 55.6 µM | 22.2 µM | 12.3 µM | 58.3 µM | 23.4 µM | > 83.8 µM | 38.6 µM | – | – | – | – | – |
| Cc1cccc(C)c1N=Nc1ccc(O)c(CN(C)C)c1 | > 100 µM | > 100 µM | > 100 µM | > 100 µM | > 100 µM | > 100 µM | 44.8 µM | > 100 µM | 69.6 µM | > 100 µM | > 100 µM | > 100 µM | 76.2 µM | > 100 µM | – | – | – | – | – |
